Experiments:
Axin1 = assay: Western blot of Axin1 in mouse EpiSCs; format: cell-based; conditions: CD1 mouse EpiSCs treated 12 h
Experimental: (§1) (A) TOPFlash™ assay in CD1 mouse EpiSCs treated with the indicated inhibitors for 12 hours. Data represent mean±s.d. of three biological replicates. (B) Representative phase contrast images of CD1 mouse EpiSCs cultured in the indicated conditions for 7 days. (C) Western blot analysis of CD1 mouse EpiSCs treated with the indicated inhibitors for 12 h. (D) qRT-PCR analysis of Axin1 and Axin2 mRNA levels in CD1 mouse EpiSCs stably transfected with Axin1 shRNA or Axin2 shRNA. Data represent mean±s.d. of three biological replicates. (E) Colony assay on CD1 mouse EpiSCs stably transfected with scramble, Axin1, or Axin2 shRNAs. Cells were plated onto a 6-well plate at a density of 5,000 cells/well and cultured in CHIR/IWR-1. Colonies were counted 7 days after plating. Data represent the total combined numbers of colonies from two independent experiments in which each shRNA-transfected group was cultured in one well of a 6-well plate. (F) Representative phase contrast images of CD 1 mouse EpiSCs stably transfected with the indicated shRNAs and cultured in CHIR/IWR-1 for 7 days. (G) Western blot analysis of CD1 mouse EpiSCs overexpressing Flag-tagged Axin1 or Axin2. (H) Representative phase contrast images of CD1 mouse EpiSCs overexpressing Axin1 or Axin2 and cultured in CHIR for 7 days. Axin2-overexpressing EpiSCs could be continually passaged in CHIR alone. Scale bars, 50 μm (B, F and H)
Next, we investigated the mechanism by which CHIR/XAV promotes EpiSC self-renewal. By inhibiting GSK3 phosphorylation of β-catenin, CHIR stabilizes β-catenin, which then trans-locates to the nucleus and forms complexes with DNA-binding proteins, including TCFs, to activate transcription (Logan and Nusse, 2004). […] Axin has two isoforms, Axin1 and Axin2. […] The expression level of Axin2, but not Axin1, was also elevated by CHIR treatment (FIG. 4C), an outcome consistent with previous findings that Axin2 is a direct downstream target of Wnt/β-catenin signaling (Jho et al., 2002). […]

[1] = system: β-catenin/TCF-responsive TOPFlash reporter; assay: TOPFlash reporter assay in mouse EpiSCs; format: cell-based; conditions: CD1 mouse EpiSCs, 12 hours
Experimental: as §1
Next, we investigated the mechanism by which CHIR/XAV promotes EpiSC self-renewal. By inhibiting GSK3 phosphorylation of β-catenin, CHIR stabilizes β-catenin, which then trans-locates to the nucleus and forms complexes with DNA-binding proteins, including TCFs, to activate transcription (Logan and Nusse, 2004). […]
For quantifying relative Oct3/4 enhancer activities, pGL3-Oct4 DE and pGL3-Oct4 PE plasmids (gifts from Hans Schöler's lab) were co-transfected with the Renilla vector, using the Amaxa™ Transfection Kit (Lonza). […] For quantifying relative β-catenin/Tcf transcriptional activity, pGL2-SuperTOP™ plasmid (gift from Randall Moon) was co-transfected with the Renilla vector and assayed accordingly.

SMILES	amount of Axin1 protein (Axin1)	TOPFlash reporter activity [1]	effect on TOPFlash activity induced by CHIR ([1]; added to CHIR)
Cc1c[nH]c(-c2cnc(NCCNc3ccc(C#N)cn3)nc2-c2ccc(Cl)cc2Cl)n1 [CHIR99021, 6-((2-((4-(2,4-Dichlorophenyl)-5-(4-methyl-1H-imidazol-2-yl)pyrimidin-2-yl)amino)ethyl)amino)nicotinonitrile]	not Axin1	strongly induced	
Oc1nc(-c2ccc(C(F)(F)F)cc2)nc2c1CSCC2 [XAV939, 3,5,7,8-Tetrahydro-2-[4-(trifluoromethyl)phenyl]-4H-thiopyrano[4,3-d]pyrimidin-4-one]	significantly increased		abolished the TOPFlash activity induced by CHIR
